Experimental data as given in PubChem BioAssay (NCI).
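These data come from cells grown in 96-well plates and exposed to compound for 48 hours at five concentrations. TGI marks complete inhibition of growth.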

Assays:
Assay in all cases: growth of human tumour cells (NCI), 48 h
[1] = tested on: COLO 205 colon
[2] = tested on: HCT-15 colon
[3] = tested on: HOP-92 NSCLC
[4] = tested on: K-562 leukemia
[5] = tested on: M14 melanoma
[6] = tested on: MDA-N
[7] = tested on: NCI-H226 lung
[8] = tested on: OVCAR-8 ovarian
[9] = tested on: SF-539 CNS
[10] = tested on: SR leukemia
[11] = tested on: UACC-257 melanoma

## COc1ccc(OC)c(NC2=NCCO2)c1
[1]
  TGI: > 100 µM
[2]
  TGI: > 100 µM
[3]
  TGI: 77.4 µM
[4]
  TGI: > 100 µM
[5]
  TGI: > 100 µM
[6]
  TGI: > 100 µM
[7]
  TGI: > 100 µM
[8]
  TGI: > 100 µM
[9]
  TGI: > 100 µM
[10]
  TGI: > 100 µM
[11]
  TGI: > 100 µM

## C/C(=N/NC(=S)Nc1cccc(Cl)c1)c1ccccn1
[1]
  TGI: 5.18 µM
[2]
  TGI: 16.1 µM
[3]
  TGI: 11.1 µM
[4]
  TGI: 2.85 µM
[5]
  TGI: 3.82 µM
[6]
  TGI: 15.5 µM
[7]
  TGI: 2.59 µM
[8]
  TGI: 9.29 µM
[9]
  TGI: 3.35 µM
[10]
  TGI: 1.99 µM
[11]
  TGI: 2.41 µM

## Cc1nc(N)sc1C(=O)Nc1ncn[nH]1
[1]
  TGI: > 100 µM
[2]
  TGI: > 100 µM
[3]
  TGI: > 100 µM
[4]
  TGI: > 100 µM
[5]
  TGI: > 100 µM
[6]
  TGI: > 100 µM
[7]
  TGI: > 100 µM
[8]
  TGI: > 100 µM
[9]
  TGI: > 100 µM
[10]
  TGI: 70 µM
[11]
  TGI: > 100 µM

## Oc1cc(O)c2c(c1)O[C@H](c1cc(O)c(O)c(O)c1)[C@@H](O)C2
[1]
  TGI: 35.8 µM
[2]
  TGI: > 100 µM
[3]
  TGI: > 10 µM
[4]
  TGI: 38.2 µM
[5]
  TGI: 57.6 µM
[6]
  TGI: 44.2 µM
[7]
  TGI: 86.5 µM
[8]
  TGI: 31.1 µM
[9]
  TGI: 40.7 µM
[10]
  TGI: 39.1 µM
[11]
  TGI: > 100 µM

## COCCOC(C)C(=O)C(O)S(=O)(=O)O (configuration not stated)
[1]
  TGI: > 100 µM
[2]
  TGI: > 100 µM
[3]
  TGI: > 100 µM
[4]
  TGI: > 100 µM
[5]
  TGI: > 100 µM
[6]
  TGI: > 100 µM
[7]
  TGI: > 100 µM
[8]
  TGI: > 100 µM
[9]
  TGI: > 100 µM
[10]
  TGI: > 100 µM
[11]
  TGI: > 100 µM

## Nc1nc(Nc2ccc(Cl)cc2)sc1C(=O)c1c[nH]c2ccccc12
[1]
  TGI: 18 µM
[2]
  TGI: 15.2 µM
[3]
  TGI: 36.2 µM
[4]
  TGI: > 100 µM
[5]
  TGI: 23.5 µM
[6]
  TGI: 25.3 µM
[7]
  TGI: 46.1 µM
[9]
  TGI: 31.6 µM
[10]
  TGI: > 100 µM
[11]
  TGI: 19.7 µM

## CCCCC(=C=C(C)CO)C1CCCN1C(=O)OC(C)(C)C (configuration not stated)
[1]
  TGI: 32.9 µM
[2]
  TGI: 39 µM
[3]
  TGI: 25.6 µM
[4]
  TGI: 38.4 µM
[5]
  TGI: 35.4 µM
[6]
  TGI: 34.2 µM
[7]
  TGI: 33.9 µM
[8]
  TGI: 37.3 µM
[9]
  TGI: 34.5 µM
[10]
  TGI: 31.5 µM
[11]
  TGI: 32.7 µM

## Cc1ccc(/C(O)=C/c2nc3cccnc3[nH]c2=O)cc1
[1]
  TGI: > 100 µM
[2]
  TGI: > 100 µM
[3]
  TGI: > 100 µM
[4]
  TGI: > 100 µM
[5]
  TGI: > 100 µM
[6]
  TGI: > 100 µM
[7]
  TGI: > 100 µM
[8]
  TGI: > 100 µM
[9]
  TGI: > 100 µM
[10]
  TGI: > 100 µM
[11]
  TGI: > 100 µM

## CC(C)NCC(O)c1ccc(O)c2ncccc12 (configuration not stated)
[1]
  TGI: 36.4 µM
[2]
  TGI: > 100 µM
[3]
  TGI: > 100 µM
[4]
  TGI: > 100 µM
[5]
  TGI: > 100 µM
[6]
  TGI: > 100 µM
[7]
  TGI: > 100 µM
[8]
  TGI: > 100 µM
[9]
  TGI: > 100 µM
[10]
  TGI: 67.6 µM
[11]
  TGI: > 100 µM

## O=C(CNc1nccs1)Nn1cnc2ccc(S(=O)(=O)Nc3nccs3)cc2c1=O
[1]
  TGI: > 100 µM
[2]
  TGI: > 100 µM
[3]
  TGI: > 100 µM
[4]
  TGI: > 100 µM
[5]
  TGI: > 100 µM
[6]
  TGI: > 100 µM
[7]
  TGI: > 100 µM
[8]
  TGI: > 100 µM
[9]
  TGI: > 100 µM
[10]
  TGI: > 100 µM
[11]
  TGI: > 100 µM

## COc1cc(S(=O)(=O)Nc2ccc(-c3csc(N4C(=O)C(Cl)C4c4cccc(Oc5ccccc5)c4)n3)cc2)ccc1Cl (configuration not stated)
[1]
  TGI: 45.5 µM
[2]
  TGI: > 100 µM
[3]
  TGI: 37.4 µM
[4]
  TGI: 91.2 µM
[5]
  TGI: 52.4 µM
[6]
  TGI: 64.7 µM
[7]
  TGI: 39.8 µM
[8]
  TGI: > 100 µM
[9]
  TGI: 29.6 µM
[10]
  TGI: > 100 µM
[11]
  TGI: > 100 µM

## c1ccc(C(c2cccc3c2ccc2ccccc23)C(c2ccccc2)c2cccc3c2ccc2ccccc23)cc1 (configuration not stated)
[1]
  TGI: > 100 µM
[2]
  TGI: > 100 µM
[3]
  TGI: > 100 µM
[4]
  TGI: > 100 µM
[5]
  TGI: > 100 µM
[6]
  TGI: > 100 µM
[7]
  TGI: > 100 µM
[8]
  TGI: > 100 µM
[9]
  TGI: > 100 µM
[10]
  TGI: > 100 µM
[11]
  TGI: > 100 µM

## C/C(=N/NC(=S)N(C)C)c1ccccc1O
[1]
  TGI: > 58.6 µM
[2]
  TGI: > 100 µM
[3]
  TGI: > 100 µM
[4]
  TGI: > 100 µM
[5]
  TGI: 23.4 µM
[6]
  TGI: > 100 µM
[7]
  TGI: > 66.3 µM
[8]
  TGI: > 74.4 µM
[9]
  TGI: 50.3 µM
[10]
  TGI: > 39.5 µM
[11]
  TGI: 63.4 µM

## CCOC(=O)C1(C#N)C2(C#N)C(N)=NC(ON=C(C)C)(ON=C(C)C)C12C#N (configuration not stated)
[1]
  TGI: > 100 µM
[2]
  TGI: > 100 µM
[3]
  TGI: > 100 µM
[4]
  TGI: > 100 µM
[5]
  TGI: > 100 µM
[6]
  TGI: > 100 µM
[7]
  TGI: > 100 µM
[8]
  TGI: > 100 µM
[10]
  TGI: > 100 µM
[11]
  TGI: > 100 µM
